Legend:
[1] = Merck Index 14th Ed. 2006, monograph no. 6327; cited from earlier work
[2] = dissolution of active ingredient in aqueous medium as a function of pH; type: physicochemical; conditions: pH of aqueous medium adjusted to greater than 7.0
Source text: In an embodiment of the present disclosure, the pH of an ophthalmic formulation including mycophenolic acid or salt thereof in an aqueous medium with a reduced level of oxygen dissolved in the ophthalmic formulation can be adjusted to a pH of greater than 7.0, e.g., at least about 7.4, such as at least about 7.8. In an embodiment, the ophthalmic formulation of the present disclosure has a pH in a range of 7.4 to 7.8 with a specification of ±0.3 pH units.

dissolution of the active ingredient [2]: facilitates dissolution
SMILES: COc1c(C)c2c(c(O)c1C/C=C(\C)CCC(=O)O)C(=O)OC2 [mycophenolic acid]
solubility in cold water [1]: almost insoluble

From patent publication US9789080B2, “Ophthalmic formulations of mycophenolic acid” (INSITE VISION INCORPORATED, priority 2015, dated 2017)
